In US20250188150A1, “PEPTIDES FOR THE TREATMENT OF FIBROSIS” (Technion Research & Development Foundation Limited, priority 2022, published 2025):

Tests used:
[1] = target: T1, LOXL3 (Homo sapiens, UniProt P58215); assay: Oxidation assay of peptides by LOXL3; type: biochemical; conditions: for oxidation of the peptide by LOXL3: oxidation assay
T1 sequence (P58215 26-753): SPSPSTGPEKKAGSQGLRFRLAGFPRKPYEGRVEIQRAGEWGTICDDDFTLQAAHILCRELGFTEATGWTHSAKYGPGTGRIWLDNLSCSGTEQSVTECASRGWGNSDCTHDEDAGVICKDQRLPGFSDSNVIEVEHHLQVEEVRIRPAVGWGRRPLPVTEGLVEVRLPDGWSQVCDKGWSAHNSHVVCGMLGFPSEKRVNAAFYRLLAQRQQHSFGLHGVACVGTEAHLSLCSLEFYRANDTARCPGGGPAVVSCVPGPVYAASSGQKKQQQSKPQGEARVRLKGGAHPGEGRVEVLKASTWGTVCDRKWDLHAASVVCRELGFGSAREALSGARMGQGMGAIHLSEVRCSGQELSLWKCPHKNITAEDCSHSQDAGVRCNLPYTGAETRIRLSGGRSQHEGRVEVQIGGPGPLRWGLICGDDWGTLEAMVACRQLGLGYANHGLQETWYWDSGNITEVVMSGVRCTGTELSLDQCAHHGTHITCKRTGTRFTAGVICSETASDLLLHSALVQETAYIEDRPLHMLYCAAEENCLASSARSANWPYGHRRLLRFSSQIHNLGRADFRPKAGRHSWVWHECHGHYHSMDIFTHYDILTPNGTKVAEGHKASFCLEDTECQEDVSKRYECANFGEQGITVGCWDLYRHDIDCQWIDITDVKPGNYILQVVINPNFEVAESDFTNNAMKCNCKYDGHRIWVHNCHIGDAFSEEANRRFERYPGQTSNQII

[2] = target: T1, LOXL3; assay: Spreading and adhesion of Pax-GFP cells on LOXL3-treated FN with or without βAPN; type: cell-based; parameters: purchased R&D systems 6069-AO
Method: Spreading and soft gel experiments: Ibidi 8-wellplates (Ibidi, 190814/1) were coated with human plasma FN (hFN, Sigma-Aldrich, FC010-10MG, 10 μg/ml) for 1 hour at 37° C. Afterwards, the samples were treated with human recombinant LOXL3 (RhLOXL3, R&D systems, 6069-AO) or LOXL2 (RhLOXL2, R&D systems, 2639-AO) for 5 hours (or sodium borate buffer 50 mM as control), with or without 200 mM βAPN (Sigma, A3134-25G) and then washed. Then, cells were seeded on the FN matrix and fixed at varying time points after spreading, followed by immunostaining. For soft gel experiments, Ibidi 8-well plates were covered with silicone gels (DOWSIL, CY 52-276 A&B), prepared at different rigidities that were previously calibrated and described (42) previous to FN coating. Images were acquired using an LSM800 confocal microscope (Zeiss) with Airyscan function and 20× or 63× objectives. […]
Nascent adhesion formation, even on very stiff matrices, requires at least four RGD (Arg-Gly-Asp) ligands that are localized within ˜60 nm from each other (35, 36). […] Towards that end, following enzymatic treatment, FN was coated on glass coverslips and Pax-GFP cells were added and shortly after (15 or 30 minutes) fixed and analyzed.

[3] = tested on: lung fibroblasts; assay: Lung fibroblast proliferation (culture confluency) with peptides; type: cell-based; conditions: following 72 hours in culture
Excerpt: Note the lack of effect in the first day of culturing (G).

[4] = tested on: human dermal fibroblast (HDF) cells; assay: Fibronectin fibrillogenesis (FN immunostaining) under HDF cells exposed to peptides; type: cell-based; conditions: HDF on glass without external FN coating, fixed after 1 week; compared with control peptides (FN1-3, FN1-9) or untreated sample
Method: (§1) Adhesion, cell area andfibronectin analysis: All of the adhesion and fibronectin fibrils analyses shown in this paper were performed using the trainable Weka segmentation plugin (41) of ImageJ (NIH) software.
Immunofluorescence: Cells were fixed with 4% paraformaldehyde solution (36% stock, Sigma-Aldrich, 50-00-0, diluted with PBS) and permeabilized with 0.1% Triton X-100 in PBS (PBT 0.1%). Primary antibodies were incubated with the fixed cells over night at 4° C. After, secondary antibodies and phalloidin were incubated for 1 hour at room temperature. For dSTORM imaging, a second 10 minutes fixation was performed at the end of the immunostaining protocol.
Representative images (FIGS. 8A-E) of fibronectin immunostaining (color-coded for intensity) underneath human dermal fibroblast (HDF) cells exposed to the different peptides (8B—SEQ ID NO: 21, 8C—SEQ ID NO: 22; 8D—SEQ ID NO: 19; 8E—SEQ ID NO: 20), seeded on glass without external FN coating and fixed after 1 week (A-E, scale=20 μm) illustrate that inhibitor peptides block fibronectin fibrillogenesis.

[5] = tested on: HDF cells; assay: HDF cell area after exposure to peptides; type: cell-based, human; conditions: HDF on glass without external FN coating, fixed after 1 week; compared with control peptides or untreated sample
Method: as §1
Representative images (FIGS. 9A-E) of HDF cell contour following exposure to the different peptides (9B—SEQ ID NO: 21, 9C—SEQ ID NO: 22; 9D—SEQ ID NO: 19; 9E—SEQ ID NO: 20), seeded on glass without external FN coating and fixed after 1 week (A-E, scale=100 μm) illustrate that inhibitor peptides reduce cell size.

Compound	effect on LOXL3 oxidation of inhibitor peptides ([1]; addition of βAPN to the oxidation assay)	cell spreading on LOXL3-treated FN ([2]; βAPN added following the FN treatment, compared to treated FN without the inhibitor)	increases in adhesion sizes and cell areas on LOXL3-treated FN ([2]; βAPN added to the FN-LOXL3 mix throughout the reaction, glass, 15 minutes)	culture confluency (cell proliferation) [3]	oxidation of the peptide by LOXL3 [1]	total fibronectin fibrils [4]	cell area [5]
N#CCCN [βAPN, beta-aminopropionitrile]	oxidation is inhibited	no difference was observed in cell spreading	blocked	–	–	–	–
DQCQDSETGTFYQIGDSWEKYVHGVRYQCYCYGRGIGEWHCQPL (FN1-9 (control peptide))	–	–	–	not with the control peptide (FN1-9) inhibit cell proliferation	not the control peptides (FN1-3 and FN1-9) undergo oxidation by LOXL3	–	–
ETCFDKYTGNTYRVGDTYERPKDSMIWDCTCIGAGRGRISCTIA (FN1-2 (Inhibitor peptide) long version of FN1-2)	–	–	–	inhibit cell proliferation	undergo oxidation by LOXL3	reduction in fibrils	significant reduction
